Reference: patent publication US9045445B2, “Glycine transporter-1 inhibitors, methods of making them, and uses thereof” (Albany Molecular Research, Inc., priority 2010, dated 2015)
Counter-ions that a name gives are not always drawn.

Tests used:
[1] = target: T1, glycine transporter-1 (GlyT-1) (Homo sapiens, UniProt P48067); assay: [14C]glycine uptake assay in JAR cells endogenously expressing GlyT-1 (scintillation proximity); format: cell-based; settings: JAR cells, [14C]glycine 5 μM, 3 hour incubation; read-out: GlyT-1 IC50
T1 construct: JAR cells (ATCC#HTB-144), which endogenously express GlyT-1; host or cells: JAR human choriocarcinoma cells
T1 sequence (P48067 1-706): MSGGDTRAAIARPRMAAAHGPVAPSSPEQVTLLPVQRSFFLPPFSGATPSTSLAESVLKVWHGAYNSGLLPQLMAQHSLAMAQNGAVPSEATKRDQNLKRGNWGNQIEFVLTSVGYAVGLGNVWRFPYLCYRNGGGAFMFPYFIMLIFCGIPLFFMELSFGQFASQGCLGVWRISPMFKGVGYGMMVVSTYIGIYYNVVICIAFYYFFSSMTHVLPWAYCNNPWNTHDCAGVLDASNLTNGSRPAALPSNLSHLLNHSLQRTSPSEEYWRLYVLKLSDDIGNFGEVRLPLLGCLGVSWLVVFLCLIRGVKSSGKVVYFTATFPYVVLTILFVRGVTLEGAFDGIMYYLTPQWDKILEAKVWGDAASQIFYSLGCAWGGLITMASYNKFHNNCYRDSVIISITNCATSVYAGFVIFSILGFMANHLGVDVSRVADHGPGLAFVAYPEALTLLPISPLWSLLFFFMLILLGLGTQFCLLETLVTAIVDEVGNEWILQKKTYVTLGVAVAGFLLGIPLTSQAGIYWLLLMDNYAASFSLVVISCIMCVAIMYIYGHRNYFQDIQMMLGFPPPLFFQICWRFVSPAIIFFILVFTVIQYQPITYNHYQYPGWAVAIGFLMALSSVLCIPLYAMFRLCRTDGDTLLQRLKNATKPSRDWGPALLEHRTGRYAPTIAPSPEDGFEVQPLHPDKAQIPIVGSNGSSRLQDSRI
How it was run: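 IC50 comes from a four-parameter fit of nine-point, duplicate curves measuring inhibition of 5 μM [14C]glycine uptake, read by scintillation proximity after 3 h at 37 °C. Cells are human JAR, which express GlyT-1 endogenously, given 10 min compound pre-treatment in pH 7.4 buffer with 5 mM alanine and 0.75% DMSO.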

[2] = target: T2, glycine transporter-2 (GlyT-2) (Homo sapiens, UniProt Q9Y345); assay: [14C]glycine uptake assay in HEK-GlyT-2 transfected cells; format: cell-based; settings: HEK-GlyT-2 cells
T2 construct: expressed in transfected cells
T2 sequence (Q9Y345 1-797): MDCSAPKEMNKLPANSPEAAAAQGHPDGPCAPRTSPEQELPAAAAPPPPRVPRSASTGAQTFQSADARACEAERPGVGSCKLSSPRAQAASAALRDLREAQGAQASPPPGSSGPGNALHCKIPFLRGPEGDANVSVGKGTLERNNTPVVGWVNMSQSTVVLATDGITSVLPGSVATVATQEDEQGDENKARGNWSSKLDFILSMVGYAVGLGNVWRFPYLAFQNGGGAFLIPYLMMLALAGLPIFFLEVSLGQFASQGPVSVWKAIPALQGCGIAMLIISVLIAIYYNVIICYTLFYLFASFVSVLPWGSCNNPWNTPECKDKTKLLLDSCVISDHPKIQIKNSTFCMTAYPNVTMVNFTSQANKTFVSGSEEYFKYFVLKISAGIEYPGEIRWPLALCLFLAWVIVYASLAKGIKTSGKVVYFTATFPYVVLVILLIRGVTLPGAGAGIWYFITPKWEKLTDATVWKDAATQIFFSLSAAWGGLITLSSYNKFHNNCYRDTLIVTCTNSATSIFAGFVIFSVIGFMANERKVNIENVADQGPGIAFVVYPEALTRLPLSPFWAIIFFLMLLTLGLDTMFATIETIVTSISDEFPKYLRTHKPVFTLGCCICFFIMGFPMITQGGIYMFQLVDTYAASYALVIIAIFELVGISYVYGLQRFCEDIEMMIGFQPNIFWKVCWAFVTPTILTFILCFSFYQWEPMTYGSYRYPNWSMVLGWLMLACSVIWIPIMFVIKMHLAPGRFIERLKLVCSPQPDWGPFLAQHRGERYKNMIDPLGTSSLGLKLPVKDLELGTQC

SMILES	IC50 [1] [µM]	IC50 [2] [µM]
CCCS(=O)(=O)N1CCN(C2(CNC(=O)c3c(C)cccc3C)CCCCC2)CC1 [compound 47, 2,6-Dimethyl-N-((1-(4-(propylsulfonyl)piperazin-1-yl)cyclohexyl)methyl) benzamide Hydrochloride]	0.012	> 75
CCCS(=O)(=O)N1CCN(C2(CNC(=O)c3ccccc3C(F)(F)F)CCCCC2)CC1 [compound 50, N-((1-(4-(Propylsulfonyl)piperazin-1-yl)cyclohexyl)methyl)-2-(trifluoromethyl)benzamide Hydrochloride]	0.048	> 75
CCCS(=O)(=O)N1CCN(C2(CNC(=O)c3ccc(F)cc3OC)CCCCCC2)CC1 [compound 52, 4-Fluoro-2-methoxy-N-((1-(4-(propylsulfonyl)piperazin-1-yl)cycloheptyl)methyl) benzamide Hydrochloride]	0.404	> 75
CCCS(=O)(=O)N1CCN(C2(CNC(=O)c3ccc(C(F)(F)F)cc3)CCCCCC2)CC1 [compound 61, N-((1-(4-(Propylsulfonyl)piperazin-1-yl)cycloheptyl)methyl)-4-(trifluoromethyl) benzamide Hydrochloride]	0.105	28
CCCS(=O)(=O)N1CCN(C2(CNC(=O)c3ccc(OC(F)(F)F)cc3)CCCCCC2)CC1 [compound 62, N-((1-(4-(Propylsulfonyl)piperazin-1-yl)cycloheptyl)methyl)-4-(trifluoromethoxy) benzamide Hydrochloride]	0.081	3.64
CCCS(=O)(=O)N1CCN(C2(CNC(=O)c3ccc(Cl)c(Cl)c3)CCCCCC2)CC1 [compound 68, 3,4-Dichloro-N-((1-(4-(propylsulfonyl)piperazin-1-yl)cycloheptyl)methyl) benzamide Hydrochloride]	0.174	3.15
CCCS(=O)(=O)N1CCN(C2(CNC(=O)c3c(C)cc(F)cc3OC)CCCCCC2)CC1 [compound 69, 4-Fluoro-2-methoxy-6-methyl-N-((1-(4-(propylsulfonyl)piperazin-1-yl)cycloheptyl)methyl) benzamide Hydrochloride]	0.004	> 75
CCCS(=O)(=O)N1CCN(C2(CNC(=O)c3c(OC)cc(C(F)(F)F)cc3C(F)(F)F)CCCCCC2)CC1 [compound 70, 2-Methoxy-N-((1-(4-(propylsulfonyl)piperazin-1-yl)cycloheptyl)methyl)-4,6-bis(trifluoromethyl) benzamide Hydrochloride]	0.009	> 75
CCCS(=O)(=O)N1CCN(C2(CNC(=O)c3ccc(F)cc3C(F)(F)F)CCCCCC2)CC1 [compound 71, 4-Fluoro-N-((1-(4-(propylsulfonyl)piperazin-1-yl)cycloheptyl)methyl)-2-(trifluoromethyl)benzamide Hydrochloride]	0.022	> 75
CCCS(=O)(=O)N1CCN(C2(CNC(=O)c3ccc(Cl)cc3Cl)CCCC2)CC1 [compound 72, 2,4-Dichloro-N-((1-(4-(propylsulfonyl)piperazin-1-yl)cyclopentyl)methyl) benzamide Hydrochloride]	0.171	> 75
CCCS(=O)(=O)N1CCN(C2(CNC(=O)c3c(OC)cc(F)cc3SC)CCCC2)CC1 [compound 74, 4-Fluoro-2-methoxy-6-(methylthio)-N-((1-(4-(propylsulfonyl)piperazin-1-yl)cyclopentyl)methyl) benzamide Hydrochloride]	0.131	> 75

The next lines start with the values.

IC50 [1] [µM]	IC50 [2] [µM]	SMILES
0.016	> 75	CCCS(=O)(=O)N1CCN(C2(CNC(=O)c3c(F)cc(F)cc3F)CCCCC2)CC1 [compound 48, 2,4,6-Trifluoro-N-((1-(4-(propylsulfonyl)piperazin-1-yl)cyclohexyl)methyl) benzamide Hydrochloride]
0.016	> 75	CCCS(=O)(=O)N1CCN(C2(CNC(=O)c3c(C)cccc3F)CCCCC2)CC1 [compound 49, 2-Fluoro-6-methyl-N-((1-(4-(propylsulfonyl)piperazin-1-yl)cyclohexyl)methyl) benzamide Hydrochloride]
0.013	> 75	CCCS(=O)(=O)N1CCN(C2(CNC(=O)c3c(F)cc(Cl)cc3F)CCCCCC2)CC1 [compound 51, 4-Chloro-2,6-difluoro-N-((1-(4-propylsulfonyl)piperazin-1-yl)cycloheptyl)methyl) benzamide Hydrochloride]
0.373	> 75	CCCS(=O)(=O)N1CCN(C2(CNC(=O)c3ccc(Cl)cc3OC)CCCCCC2)CC1 [compound 53, 4-Chloro-2-methoxy-N-((1-(4-(propylsulfonyl)piperazin-1-yl)cycloheptyl)methyl) benzamide Hydrochloride]
0.02	> 75	CCCS(=O)(=O)N1CCN(C2(CNC(=O)c3c(F)ccc(F)c3Cl)CCCCCC2)CC1 [compound 54, 2-Chloro-3,6-difluoro-N-((1-(4-(propylsulfonyl)piperazin-1-yl)cycloheptyl)methyl) benzamide Hydrochloride]
0.014	> 75	CCCS(=O)(=O)N1CCN(C2(CNC(=O)c3c(F)cccc3OC)CCCCCC2)CC1 [compound 55, 2-Fluoro-6-methoxy-N-((1-(4-(propylsulfonyl)piperazin-1-yl)cycloheptyl)methyl) benzamide Hydrochloride]
0.006	39	CCCS(=O)(=O)N1CCN(C2(CNC(=O)c3c(N)cccc3Cl)CCCCCC2)CC1 [compound 56, 2-Amino-6-chloro-N-((1-(4-(propylsulfonyl)piperazin-1-yl)cycloheptyl)methyl) benzamide Hydrochloride]
0.128	> 75	CCCS(=O)(=O)N1CCN(C2(CNC(=O)c3cccc(C(F)(F)F)c3Cl)CCCCCC2)CC1 [compound 59, 2-Chloro-N-((1-(4-(propylsulfonyl)piperazin-1-yl)cycloheptyl)methyl)-3-(trifluoromethyl) benzamide Hydrochloride]
0.011	> 75	CCCS(=O)(=O)N1CCN(C2(CNC(=O)c3ccc(Cl)cc3Cl)CCCCCC2)CC1 [compound 60, 2,4-Dichloro-N-((1-(4-(propylsulfonyl)piperazin-1-yl)cycloheptyl)methyl) benzamide Hydrochloride]
0.099	> 75	CCCS(=O)(=O)N1CCN(C2(CNC(=O)c3ccccc3F)CCCCCC2)CC1 [compound 63, 2-Fluoro-N-((1-(4-(propylsulfonyl)piperazin-1-yl)cycloheptyl)methyl) benzamide Hydrochloride]
0.011	> 75	CCCS(=O)(=O)N1CCN(C2(CNC(=O)c3c(Cl)cccc3Cl)CCCCCC2)CC1 [compound 64, 2,6-Dichloro-N-((1-(4-(propylsulfonyl)piperazin-1-yl)cycloheptyl)methyl) benzamide Hydrochloride]
0.204	> 75	CCCS(=O)(=O)N1CCN(C2(CNC(=O)c3cccc(OC)c3Cl)CCCCCC2)CC1 [compound 65, 2-Chloro-3-methoxy-N-((1-(4-(propylsulfonyl)piperazin-1-yl)cycloheptyl)methyl) benzamide Hydrochloride]
0.029	> 45	CCCS(=O)(=O)N1CCN(C2(CNC(=O)c3c(F)cccc3F)CCCCCC2)CC1 [compound 66, 2,6-Difluoro-N-((1-(4-(propylsulfonyl)piperazin-1-yl)cycloheptyl)methyl) benzamide Hydrochloride]
